Tested on: GUMC-403
Experiment: viability at highest tested concentration (max response) relative to DMSO (% of DMSO control); higher = less cytotoxic
Conditions: library / dose series: MIPE library, 11-point 1:3 dilution, 48 h
Outline: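 Plates of 1536 wells were seeded with 700 patient-derived GUMC-403 papilloma cells per well, grown by conditional reprogramming, in 5 μL F + Y medium and kept overnight at 37 °C. Compounds followed at 23 nL by pin tool over an 11-point 1:3 series, for 48 h. After a CellTiter-Glo luminescence read on a ViewLux, signals were set against vehicle wells as 100% and empty wells as 0%. The reported number is viability at the highest tested concentration relative to vehicle control.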

Row | SMILES | viability (top concentration 46.1 µM) | further results
1 | COc1ccc2cc(-c3[nH]c(-c4ccc([S+](C)[O-])cc4)nc3-c3ccncc3)ccc2c1 (configuration not stated) | 144 | –
2 | CN(C[C@@H]1COCCO1)[S+]([O-])(=O)NC2=CC3=C(C=C2)\C=C/C4=C(C=C(C=N4)C5=C[N](C)N=C5)C3=O | 114 | –
3 | CN1CCC(CNc2ccc3ncc(-c4cccc(OC(F)(F)F)c4)n3n2)CC1 | 52.5 | –
4 | NC(=O)c1ncn([C@@H]2O[C@H](CO)[C@@H](O)[C@H]2O)c1N | 118 | –
5 | COc1cc2c(Nc3ccc(NC(=O)c4ccccc4)cc3)ncnc2cc1OCCCN1CCOCC1 | 117 | –
6 | CN(C)NC(=O)CCC(=O)O | 101 | –
7 | CC[C@@]1(O)C(=O)OC\C2=C1\C=C3/N(CC4=CC5=C(C=CC(=C5CN(C)C)O)N=C34)C2=O | 66.5 | –
8 | CCC[S+]([O-])c1ccc2[nH]c(NC(=O)OC)nc2c1 (configuration not stated) | 92.2 | –
9 | CCOC(=O)\C1=C\[C@]2(CC)CCCN3CCC4=C([C@H]23)[N]1C5=C4C=CC=C5 | 83.9 | –
10 | CN1CCN(c2c(F)cc3c(=O)c(C(=O)O)cn(CCF)c3c2F)CC1 | 104 | –
11 | COc1ccc(-n2nc(C(N)=O)c3c2C(=O)N(c2ccc(N4CCCCC4=O)cc2)CC3)cc1 | 146 | –
12 | Cc1cc(Nc2cc(N3CCN(C)CC3)nc(/C=C/c3ccccc3)n2)n[nH]1 | – | viability (top concentration 92.2 µM): 54.1
13 | CCCCc1oc2ccc(NS(C)(=O)=O)cc2c1C(=O)c1ccc(OCCCN(CCCC)CCCC)cc1 | 126 | –
14 | C[C@]12CCC(=O)C=C1CC[C@@H]1[C@@H]2[C@@H](O)C[C@@]2(C)[C@H]1CC[C@]2(O)C(=O)CO | 135 | –
15 | COc1cc(C)c(/C=C/C(C)=C/C=C/C(C)=C/C(=O)O)c(C)c1C | 101 | –
16 | OC[C@H]1O[C@@H](O[C@@H]2[C@@H](CO)O[C@](O)(CO)[C@H]2O)[C@H](O)[C@@H](O)[C@H]1O | 95.3 | –
17 | Clc1ccc(C(Cn2ccnc2)OCc2ccsc2Cl)c(Cl)c1 (configuration not stated) | 107 | –
18 | COC/1=C/C=C2\C(=C/C1=O)[C@H](CCC3=CC(=C(OC)C(=C23)OC)OC)NC(C)=O | 90.8 | –
19 | CC12CC3CC(C)(C1)CC(N)(C3)C2 | 117 | –
20 | CO[C@H]1C[C@@H]2CC[C@@H](C)[C@@](O)(O2)C(=O)C(=O)N2CCCC[C@H]2C(=O)O[C@H]([C@@H](C)C[C@@H]2CC[C@@H](O)[C@H](OC)C2)CC(=O)[C@H](C)/C=C(\C)[C@@H](O)[C@@H](OC)C(=O)[C@H](C)C[C@H](C)/C=C/C=C/C=C/1C | 106 | –
21 | CN[C@@H](C)C(=O)N[C@H]1CN(C(=O)CC(C)C)CC[C@H]2CC[C@@H](C(=O)NC(c3ccccc3)c3ccccc3)N2C1=O | 73.1 | –
22 | C[C@H]1[C@@H](CC(C[C@H]2O[C@@H]3O[C@]4(C)CC[C@H]5[C@H](C)CC[C@@H]([C@H]2C)[C@@]35OO4)C[S+](=O)([O-])c2ccc(COC(=O)N(C)C)cc2)O[C@@H]2O[C@]3(C)CC[C@H]4[C@H](C)CC[C@@H]1[C@@]24OO3 | 104 | –
23 | COc1cc([C@@H]2c3cc4c(cc3[C@H](O)[C@H]3COC(=O)[C@@H]23)OCO4)cc(OC)c1OC | 99.5 | –
24 | C=CCc1cc(OC)c(O)c(C(=O)NCCO)c1 | 118 | –
25 | NC\1=N\C(=O)N(\C=C1)[C@@H]2O[C@H](CO)[C@@H](O)[C@@H]2O | 113 | –
26 | CC(C)c1ccc(Cn2ccc3c4c(N)nc(NC5CC5)nc4ccc32)cc1 | 106 | –

Row | SMILES | viability (top concentration 46.1 µM) | further results
27 | CC(C)(C)OC(=O)N[C@H]1CCCCC/C=C\[C@@H]2C[C@@]2(C(=O)N[S+](=O)([O-])C2CC2)NC(=O)[C@@H]2C[C@@H](OC(=O)N3Cc4cccc(F)c4C3)CN2C1=O | 138 | –
28 | CC1(C)Cc2c(-c3ccccc3)c(-c3ccc(Cl)cc3)c(CC(=O)O)n2C1 | 102 | –
29 | N#CC(c1ccnc(NCCc2cccnc2)n1)c1nc2ccccc2s1 (configuration not stated) | 108 | –
30 | COc1ccc(C2CNC(=O)C2)cc1OC1CCCC1 (configuration not stated) | 136 | –
31 | COC(=O)Nc1nc2cc(Sc3ccccc3)ccc2[nH]1 | 95.8 | –
32 | CCn1cc(-c2ccnc3[nH]c(-c4cccc(CN(C)C)c4)cc23)c(-c2ccc(NC(=O)N(C)C)cc2)n1 | 54.6 | –
33 | CC(C)Cc1ccc(C(C)C(=O)O)cc1 (configuration not stated) | – | viability (top concentration 23 µM): 103
34 | C[C@@H](NC1=CC=CC=C1C(O)=O)C/2=C/C(=C\N3C(=O)/C=C(\N=C23)N4CCOCC4)C | – | viability (top concentration 92.2 µM): 34.9
35 | CCC(=O)N[C@H]1CC[C@H](C(=O)N(C)c2ccc(-c3nc4ccccc4o3)cc2)C1 | 84.8 | –
36 | CC1(C)CCC[C@]2(C)[C@H]3CC(=O)O[C@]3(C)CC[C@@H]12 | 96 | –
37 | OC1=C(O)C2=C(\C=C/C(=O)O2)C=C1 | 110 | –
38 | COC1=CC2=C(C=C1OC)[C@H]3[C@@H](CO2)OC4=C(C=CC5=C4\C=C/C(C)(C)O5)C3=O | 115 | –
39 | Cc1[nH]c(/C=C2\C(=O)Nc3ccc([S+](=O)([O-])Cc4c(Cl)cccc4Cl)cc32)c(C)c1C(=O)N1CCC[C@@H]1CN1CCCC1 | 113 | –
40 | CCOC\1=C(/C(=O)NC2=CC=C(OC3=C(Cl)C(=NC=C3)N)C(=C2)F)C(=O)N(\C=C1)C4=CC=C(F)C=C4 | 77.8 | –
41 | CN(C)CCCN\C1=C\2C(=O)N(C)C(=O)\N=C2N(C)C3=C1C=CC=C3 | 107 | –
42 | CC1(C)O[C@@H]2C[C@H]3[C@@H]4C[C@H](F)C5=CC(=O)C=C[C@]5(C)[C@@]4(F)[C@@H](O)C[C@]3(C)[C@]2(C(=O)CO)O1 | 109 | –
43 | CN(C)C(=O)COC(=O)Cc1ccc(OC(=O)c2ccc(NC(=N)N)cc2)cc1 | 62.7 | –
44 | COc1ccc2c(c1)c(CC(=O)OCC(=O)O)c(C)n2C(=O)c1ccc(Cl)cc1 | 90.3 | –
45 | O=C(O)CC/C=C\CC[C@@H]1[C@@H](N2CCCCC2)[C@@H](O)C[C@@H]1OCc1ccc(-c2ccccc2)cc1 | 112 | –
46 | CCC1(C)CC(=O)NC1=O (configuration not stated) | 94.5 | –
47 | CN1[C@@H]2CC(O)C[C@H]1[C@@H]1O[C@@H]12 (some centres not stated) | 92.4 | –
48 | COC1=C(OC)C(=O)C(C/C=C(\C)CC/C=C(\C)CC/C=C(\C)CC/C=C(\C)CC/C=C(\C)CC/C=C(\C)CC/C=C(\C)CC/C=C(\C)CC/C=C(\C)CCC=C(C)C)=C(C)C1=O | 118 | –
49 | C[C@@H]1C[C@H]2[C@@H]3\C=C(C)/C4=C/C5=C(C[C@]4(C)[C@H]3[C@@H](O)C[C@]2(C)[C@@]1(O)C(=O)CO)C=N[N]5C6=CC=CC=C6 | 125 | –
50 | Cc1cccc(C)c1OCC(=O)N[C@@H](Cc1ccccc1)[C@@H](O)C[C@H](Cc1ccccc1)NC(=O)[C@H](C(C)C)N1CCCNC1=O | 121 | –
51 | CC1(CN2CCC(n3c(=O)[nH]c4ccccc43)CC2)OCc2ccccc2-n2cccc21 (configuration not stated) | 82.8 | –
52 | CC(=O)OC[C@@H]1O[C@H]([C@H](OC(C)=O)[C@@H]1OC(C)=O)N2\C=C/C(=O)NC2=O | 110 | –

Row | SMILES | viability (top concentration 46.1 µM) | further results
53 | Cc1coc2c1C(=O)C(=O)c1c-2ccc2c1CCCC2(C)C | 113 | –
54 | NC(=O)c1cnccn1 | 131 | –
55 | O=C/1NC(=O)C(=C1C2=CN=C3C=CC=C[N]23)/C4=C[N]5CCN(CC6=C5C4=CC=C6)C(=O)N7CCOCC7 | 60.5 | –
56 | CN(C1CCc2c(c3ccccc3n2CC(=O)O)C1)[S+](=O)([O-])c1ccc(F)cc1 (configuration not stated) | 114 | –
57 | C[C@]\12CC[C@H](O)CC1=C/C[C@@H]3[C@@H]2CC[C@@]\4(C)[C@H]3C\C=C4C5=CN=CC=C5 | – | viability (top concentration 23 µM): 110
58 | COC[C@H]1OC(=O)C2=COC3=C2[C@@]1(C)\C4=C(C5CCC(=O)[C@@]5(C)C[C@H]4OC(C)=O)/C3=O (some centres not stated) | 88.9 | –
59 | O=C1CC[C@@]2(O)[C@H]3Cc4ccc(O)c5c4[C@@]2(CCN3CC2CC2)[C@H]1O5 | 137 | –
60 | O=C(CC12CC3CC(CC(C3)C1)C2)Nc1cccc2nc(NCCNCCO)ccc12 | 69.8 | –
61 | NNC(=O)c1ccncc1 | 104 | –
62 | CN(c1nccc(=O)[nH]1)C1CCN(c2nc3ccccc3n2Cc2ccc(F)cc2)CC1 | 97.4 | –
63 | O=C(NCC[S+](=O)([O-])c1ccc(C(F)(F)F)cn1)c1ccc(Cl)cc1 | 107 | –
64 | Cc1nc(-c2ccc(-c3ccc(C(=O)N4CCc5cc6c(cc54)C4(CCN(C)CC4)CO6)cc3)c(C)c2)no1 | 124 | –
65 | Oc1ccc2c3c1O[C@H]1c4[nH]c5c(c4C[C@@]4(O)[C@@H](C2)N(CC2CC2)CC[C@]314)C[C@@]1(O)[C@H]2Cc3ccc(O)c4c3[C@@]1(CCN2CC1CC1)[C@H]5O4 | 142 | –
66 | CCCCCCCCCCCCCC(=O)N[C@H](CO)[C@H](O)c1ccc([N+](=O)[O-])cc1 | 116 | –
67 | CC(Cc1ccc(O)c(O)c1)(NN)C(=O)O (configuration not stated) | 96 | –
68 | N#C/C(=C1/Nc2ccccc2S1)c1ccnc(OCc2ccc(CN3CCOCC3)cc2)n1 | 91.3 | –
69 | CC(COc1ccccc1)N(CCCl)Cc1ccccc1 (configuration not stated) | 122 | –
70 | Cc1ccccc1N1C(=O)c2cc([S+](N)(=O)[O-])c(Cl)cc2NC1C (configuration not stated) | 105 | –
71 | C=CC[C@@H]1/C=C(\C)C[C@H](C)C[C@H](OC)[C@H]2O[C@@](O)(C(=O)C(=O)N3CCCC[C@H]3C(=O)O[C@H](/C(C)=C/[C@@H]3CC[C@@H](O)[C@H](OC)C3)[C@H](C)[C@@H](O)CC1=O)[C@H](C)C[C@@H]2OC | 126 | –
72 | CCOC(=O)c1cncn1[C@H](C)c1ccccc1 | 111 | –
73 | NC/1=N/C(=O)C2=C([NH]C=C2CCC3=CC=C(C=C3)C(=O)N[C@@H](CCC(O)=O)C(O)=O)N1 | 119 | –
74 | Nc1c2c(nc3ccccc13)CCCC2 | 107 | –
75 | COc1cc(N2CCN(C)CC2)ccc1Nc1nc(N)c(C(=O)c2c(Cl)cccc2Cl)s1 | 120 | –
76 | O=C(c1cncc(Br)c1)N1CCC(N2CCCC2)CC1 | 115 | –
77 | C[C@@H]1CCN(C(=O)CC#N)C[C@@H]1N(C)c1ncnc2[nH]ccc12 | 79.1 | –
